# Measured values from publication PMC11249646, “Small-Molecule Disruptors of the Interaction between Calcium- and Integrin-Binding Protein 1 and Integrin αIIbβ3 as Novel Antiplatelet Agents” (ACS Pharmacology & Translational Science, 2024).
# Biological target: T1, GST-CIB1 : F-scrambled peptide (Homo sapiens, UniProt Q99828)
# T1 construct: made in house; host or cells: BL-21 plus RIL cells (E. coli)
# T1 sequence (Q99828 1-191): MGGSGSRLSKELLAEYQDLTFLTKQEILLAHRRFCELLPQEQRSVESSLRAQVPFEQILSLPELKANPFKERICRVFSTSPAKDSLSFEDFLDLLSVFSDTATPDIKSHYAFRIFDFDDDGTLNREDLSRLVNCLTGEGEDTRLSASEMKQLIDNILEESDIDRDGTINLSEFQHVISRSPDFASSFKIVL
# Experiment: FP scrambled-peptide counter screen, 1536-well format
# Assay type: binding
# Settings: counterscreen
Efficacy (%) (counterscreen),COUNTERSCREEN Efficacy (%),SMILES
–,-21%,CC(C)(C)OC(=O)CC(=O)NNC(=O)c1nc2ccccc2[nH]1 [NCGC00181234-01]
-83%,–,Cc1cc2nc3ccc(N(C)C)cc3[s+]c2cc1N.Cl.[Cl-] [NCGC00181775-02]
-61%,–,O=C(O)c1ccc(-n2cccc2/C=C2\SC(=O)N(Cc3cccc(Cl)c3)C2=O)cc1 [NCGC00182735-01]

SMILES,Efficacy (%) (counterscreen),COUNTERSCREEN Efficacy (%)
CC1=C(O)C(=O)C=C2C1=CC=C1[C@@]2(C)CC[C@@]2(C)[C@@H]3C[C@](C)(C(=O)O)CC[C@]3(C)CC[C@]12C [NCGC00178913-04],-107%,–

# Same assay, conditions: counterscreen, qHTS curve class
row,COUNTERSCREEN Curve Class,SMILES
1,4,CC(C)(C)OC(=O)CC(=O)NNC(=O)c1nc2ccccc2[nH]1 [NCGC00181234-01]

# Same assay, conditions: counterscreen, qHTS curve class; negative sign = inhibitory curve
row,Curve Class (counterscreen),SMILES
1,-2.2,Cc1cc2nc3ccc(N(C)C)cc3[s+]c2cc1N.Cl.[Cl-] [NCGC00181775-02]
2,-2.2,O=C(O)c1ccc(-n2cccc2/C=C2\SC(=O)N(Cc3cccc(Cl)c3)C2=O)cc1 [NCGC00182735-01]

row,SMILES,Curve Class (counterscreen)
1,CC1=C(O)C(=O)C=C2C1=CC=C1[C@@]2(C)CC[C@@]2(C)[C@@H]3C[C@](C)(C(=O)O)CC[C@]3(C)CC[C@]12C [NCGC00178913-04],-2.1

# Same assay, conditions: counterscreen; read-out: IC50 [μM] (counterscreen)
row,IC50,SMILES
1,44.7 µM,Cc1cc2nc3ccc(N(C)C)cc3[s+]c2cc1N.Cl.[Cl-] [NCGC00181775-02]
2,56.2 µM,O=C(O)c1ccc(-n2cccc2/C=C2\SC(=O)N(Cc3cccc(Cl)c3)C2=O)cc1 [NCGC00182735-01]

row,SMILES,IC50
1,CC1=C(O)C(=O)C=C2C1=CC=C1[C@@]2(C)CC[C@@]2(C)[C@@H]3C[C@](C)(C(=O)O)CC[C@]3(C)CC[C@]12C [NCGC00178913-04],44.7 µM

# Same assay, conditions: scrambled-peptide counterscreen
row,SMILES,COUNTERSCREEN Efficacy (%)
1,O=c1oc2ccccc2c(O)c1C(CC(O)c1ccc(-c2ccc(Br)cc2)cc1)c1ccccc1 (centres unmarked) [NCGC00163939-02],109%
2,O=S(=O)(c1ccc2nc(Cl)c(Cl)nc2c1)N1CCN(S(=O)(=O)c2c(F)cccc2F)CC1 [NCGC00182436-01],-18%

# Same assay, conditions: scrambled-peptide counterscreen, YES/NO call
row,SMILES,COUNTERSCREEN Confirm?
1,O=c1oc2ccccc2c(O)c1C(CC(O)c1ccc(-c2ccc(Br)cc2)cc1)c1ccccc1 (centres unmarked) [NCGC00163939-02],YES
2,O=S(=O)(c1ccc2nc(Cl)c(Cl)nc2c1)N1CCN(S(=O)(=O)c2c(F)cccc2F)CC1 [NCGC00182436-01],YES

# Same assay, conditions: scrambled-peptide counterscreen, qHTS curve class
row,SMILES,COUNTERSCREEN Curve Class
1,O=c1oc2ccccc2c(O)c1C(CC(O)c1ccc(-c2ccc(Br)cc2)cc1)c1ccccc1 (centres unmarked) [NCGC00163939-02],3
2,O=S(=O)(c1ccc2nc(Cl)c(Cl)nc2c1)N1CCN(S(=O)(=O)c2c(F)cccc2F)CC1 [NCGC00182436-01],4

# Same assay, conditions: scrambled-peptide counterscreen; read-out: COUNTERSCREEN IC50
row,SMILES,IC50
1,O=c1oc2ccccc2c(O)c1C(CC(O)c1ccc(-c2ccc(Br)cc2)cc1)c1ccccc1 (centres unmarked) [NCGC00163939-02],89.1 µM

# Biological target: T2, CIB1 and αIIb interaction (CIB1-GST : F-αIIb peptide) (Homo sapiens, UniProt Q99828)
# T2 construct: made in house; host or cells: BL-21 plus RIL cells (E. coli)
# T2 sequence (Q99828 1-191): T1 sequence (Q99828 1-191)
# Experiment: FP assay, 1536-well qHTS format (primary and confirmatory screen)
# Assay type: binding
# Settings: confirmatory screen
Efficacy (%) (confirmatory screen),CONFIRMATORY SCREEN Efficacy (%),SMILES
–,-10%,CC(C)(C)OC(=O)CC(=O)NNC(=O)c1nc2ccccc2[nH]1 [NCGC00181234-01]
-72%,–,Cc1cc2nc3ccc(N(C)C)cc3[s+]c2cc1N.Cl.[Cl-] [NCGC00181775-02]
-109%,–,O=C(O)c1ccc(-n2cccc2/C=C2\SC(=O)N(Cc3cccc(Cl)c3)C2=O)cc1 [NCGC00182735-01]

SMILES,Efficacy (%) (confirmatory screen),CONFIRMATORY SCREEN Efficacy (%)
CC1=C(O)C(=O)C=C2C1=CC=C1[C@@]2(C)CC[C@@]2(C)[C@@H]3C[C@](C)(C(=O)O)CC[C@]3(C)CC[C@]12C [NCGC00178913-04],-135%,–

# Same assay, conditions: confirmatory screen, YES/NO
row,Confirm? (confirmatory screen),SMILES
1,YES,Cc1cc2nc3ccc(N(C)C)cc3[s+]c2cc1N.Cl.[Cl-] [NCGC00181775-02]
2,YES,O=C(O)c1ccc(-n2cccc2/C=C2\SC(=O)N(Cc3cccc(Cl)c3)C2=O)cc1 [NCGC00182735-01]

row,SMILES,Confirm? (confirmatory screen)
1,CC1=C(O)C(=O)C=C2C1=CC=C1[C@@]2(C)CC[C@@]2(C)[C@@H]3C[C@](C)(C(=O)O)CC[C@]3(C)CC[C@]12C [NCGC00178913-04],YES

# Same assay, conditions: confirmatory screen, YES/NO call
row,SMILES,CONFIRMATORY SCREEN Confirm?
1,O=c1oc2ccccc2c(O)c1C(CC(O)c1ccc(-c2ccc(Br)cc2)cc1)c1ccccc1 (centres unmarked) [NCGC00163939-02],YES
2,O=S(=O)(c1ccc2nc(Cl)c(Cl)nc2c1)N1CCN(S(=O)(=O)c2c(F)cccc2F)CC1 [NCGC00182436-01],YES

# Same assay, conditions: confirmatory screen, qHTS curve class
row,CONFIRMATORY SCREEN Curve Class,SMILES
1,4,CC(C)(C)OC(=O)CC(=O)NNC(=O)c1nc2ccccc2[nH]1 [NCGC00181234-01]

# Same assay, conditions: confirmatory screen, qHTS curve class; negative sign = inhibitory curve
Curve Class (confirmatory screen),SMILES,CONFIRMATORY SCREEN Curve Class
–,O=c1oc2ccccc2c(O)c1C(CC(O)c1ccc(-c2ccc(Br)cc2)cc1)c1ccccc1 (centres unmarked) [NCGC00163939-02],-1.2
-2.2,Cc1cc2nc3ccc(N(C)C)cc3[s+]c2cc1N.Cl.[Cl-] [NCGC00181775-02],–
–,O=S(=O)(c1ccc2nc(Cl)c(Cl)nc2c1)N1CCN(S(=O)(=O)c2c(F)cccc2F)CC1 [NCGC00182436-01],-1.4
-2.1,O=C(O)c1ccc(-n2cccc2/C=C2\SC(=O)N(Cc3cccc(Cl)c3)C2=O)cc1 [NCGC00182735-01],–

SMILES,Curve Class (confirmatory screen),CONFIRMATORY SCREEN Curve Class
CC1=C(O)C(=O)C=C2C1=CC=C1[C@@]2(C)CC[C@@]2(C)[C@@H]3C[C@](C)(C(=O)O)CC[C@]3(C)CC[C@]12C [NCGC00178913-04],-1.1,–

# Same assay, conditions: confirmatory screen; negative = inhibition
row,SMILES,CONFIRMATORY SCREEN Efficacy (%)
1,O=c1oc2ccccc2c(O)c1C(CC(O)c1ccc(-c2ccc(Br)cc2)cc1)c1ccccc1 (centres unmarked) [NCGC00163939-02],-37%
2,O=S(=O)(c1ccc2nc(Cl)c(Cl)nc2c1)N1CCN(S(=O)(=O)c2c(F)cccc2F)CC1 [NCGC00182436-01],-43%

# Same assay, conditions: confirmatory screen; read-out: CONFIRMATORY SCREEN IC50
row,SMILES,IC50
1,O=c1oc2ccccc2c(O)c1C(CC(O)c1ccc(-c2ccc(Br)cc2)cc1)c1ccccc1 (centres unmarked) [NCGC00163939-02],12.6 µM
2,O=S(=O)(c1ccc2nc(Cl)c(Cl)nc2c1)N1CCN(S(=O)(=O)c2c(F)cccc2F)CC1 [NCGC00182436-01],5.6 µM

# Same assay, conditions: confirmatory screen; read-out: IC50 [μM] (confirmatory screen)
row,SMILES,IC50
1,CC1=C(O)C(=O)C=C2C1=CC=C1[C@@]2(C)CC[C@@]2(C)[C@@H]3C[C@](C)(C(=O)O)CC[C@]3(C)CC[C@]12C [NCGC00178913-04],22.4 µM
2,Cc1cc2nc3ccc(N(C)C)cc3[s+]c2cc1N.Cl.[Cl-] [NCGC00181775-02],22.4 µM

# Same assay, conditions: qHTS FP screen hits, Table S2; negative = inhibition
row,SMILES,Efficacy (%)
1,CC1=C(O)C(=O)C=C2C1=CC=C1[C@@]2(C)CC[C@@]2(C)[C@@H]3C[C@](C)(C(=O)O)CC[C@]3(C)CC[C@]12C [NCGC00178913-04],-84%
2,O=C(O)c1ccc(-n2cccc2/C=C2\SC(=O)N(Cc3cccc(Cl)c3)C2=O)cc1 [NCGC00182735-01],-66%

# Same assay, conditions: qHTS FP screen hits, Table S2; one class per curve where COUNT > 1; negative sign = inhibitory curve
row,SMILES,Curve Class
1,CC1=C(O)C(=O)C=C2C1=CC=C1[C@@]2(C)CC[C@@]2(C)[C@@H]3C[C@](C)(C(=O)O)CC[C@]3(C)CC[C@]12C [NCGC00178913-04],-3
2,O=C(O)c1ccc(-n2cccc2/C=C2\SC(=O)N(Cc3cccc(Cl)c3)C2=O)cc1 [NCGC00182735-01],-2.2

# Same assay, conditions: qHTS FP screen hits, Table S2; read-out: IC50
row,SMILES,IC50
1,CC1=C(O)C(=O)C=C2C1=CC=C1[C@@]2(C)CC[C@@]2(C)[C@@H]3C[C@](C)(C(=O)O)CC[C@]3(C)CC[C@]12C [NCGC00178913-04],34.1 µM

# Same assay, conditions: qHTS primary screen hits, Table S2; negative = inhibition
row,SMILES,Efficacy (%)
1,O=c1oc2ccccc2c(O)c1C(CC(O)c1ccc(-c2ccc(Br)cc2)cc1)c1ccccc1 (centres unmarked) [NCGC00163939-02],-58%
2,CC(C)(C)OC(=O)CC(=O)NNC(=O)c1nc2ccccc2[nH]1 [NCGC00181234-01],-37%

# Results, then the molecule that gave them:
row,Efficacy (%),SMILES
1,-38%,Cc1cc2nc3ccc(N(C)C)cc3[s+]c2cc1N.Cl.[Cl-] [NCGC00181775-02]
2,-32%,O=S(=O)(c1ccc2nc(Cl)c(Cl)nc2c1)N1CCN(S(=O)(=O)c2c(F)cccc2F)CC1 [NCGC00182436-01]

# Same assay, conditions: qHTS primary screen hits, Table S2; negative sign = inhibitory curve
row,Curve Class,SMILES
1,-2.4,CC(C)(C)OC(=O)CC(=O)NNC(=O)c1nc2ccccc2[nH]1 [NCGC00181234-01]

# Same assay, conditions: qHTS primary screen hits, Table S2; negative sign = inhibitory curve; several classes where COUNT > 1
row,Curve Class,SMILES
1,-2.4,Cc1cc2nc3ccc(N(C)C)cc3[s+]c2cc1N.Cl.[Cl-] [NCGC00181775-02]
2,-1.4,O=S(=O)(c1ccc2nc(Cl)c(Cl)nc2c1)N1CCN(S(=O)(=O)c2c(F)cccc2F)CC1 [NCGC00182436-01]

row,SMILES,Curve Class
1,O=c1oc2ccccc2c(O)c1C(CC(O)c1ccc(-c2ccc(Br)cc2)cc1)c1ccccc1 (centres unmarked) [NCGC00163939-02],-2.2

# Same assay, conditions: qHTS primary screen hits, Table S2; read-out: IC50
row,SMILES,IC50
1,O=c1oc2ccccc2c(O)c1C(CC(O)c1ccc(-c2ccc(Br)cc2)cc1)c1ccccc1 (centres unmarked) [NCGC00163939-02],79.4 µM
2,CC(C)(C)OC(=O)CC(=O)NNC(=O)c1nc2ccccc2[nH]1 [NCGC00181234-01],39.8 µM

# The remaining lines, values ahead:
row,IC50,SMILES
1,39.8 µM,Cc1cc2nc3ccc(N(C)C)cc3[s+]c2cc1N.Cl.[Cl-] [NCGC00181775-02]
2,2.2 µM,O=S(=O)(c1ccc2nc(Cl)c(Cl)nc2c1)N1CCN(S(=O)(=O)c2c(F)cccc2F)CC1 [NCGC00182436-01]
